The source of these data is patent US20150315218A1, “SALTS OF PRODRUGS OF PIPERAZINE AND SUBSTITUTED PIPERIDINE ANTIVIRAL AGENTS” (Bristol-Myers Squibb Company, priority 2004, published 2015).

Structures can show the parent of a compound that is named as a salt. Where two headings read alike, the source gives them in different places. Some results are limits rather than exact numbers.

Data set [1] is described as follows: pKa. It is filed as physicochemical. To be noted: read-out: pKa (potentiometric).
Data set [2] in a line: Solution and solid stability. It is filed as physicochemical.
Data set [3] can be described thus: Aqueous / crystalline solubility. Conditions: aqueous solution.
Data set [4] is described as follows: Single dose study of Compound IVa in healthy human volunteers (capsule/solution, fasted/fed; first-in-human). It is filed as in vivo. To be noted: for AUCtotal / Cmax: n = 6. On the procedure:
The parent compound IVa has been studied in human clinical trials. The compound was dosed in healthy human volunteers.
It is also readily apparent from the oral AUCs, that increases in drug exposure increased much more slowly and less than proportionally with dose. […] Between 200-800 mg dose range the increases in systemic exposure is dose-related although less than dose-proportional, while such exposure is dose independent above dose of 800 mg.
Dosing with a solution increased Compound IVa exposure.
The AUCs after a fed treatment were approximately 2.5 and 4.7 fold for 800 and 1800 mg doses, respectively, of those of the fasted treatment.
For the 800 mg capsule with food, the average plasma concentration is 1001 and 218 ng/mL at 8 and 12 hours post dose, respectively. The results supported a ql2 h or q8 h dosing regimen for a targeted Cmin value of at least 200 ng/mL after multiple doses. This value was selected based on preclinical data.

A short description of data set [5]: Multiple dose study of Compound IVa in healthy humans. It is filed as in vivo, human. To be noted: multiple Q12H doses, 14 days. The method, then:
A placebo-controlled, ascending multiple-dose study to evaluate the safety, tolerability and pharmacokinetics of Compound IVa in healthy human subjects was carried out. Dosing was continued at 12 h intervals for 14 days. […] Thus, the exposure was better when dosing was combined with a high fat meal and exposure increases with dose were higher with a high fat meal.

The test system of data set [6] is HIV-1. Nature of the data set: Multiple dose study in HIV patients (antiviral activity of IVa). Format: in vivo, human. The method, then: Based on the exposure data from the studies in normal volunteers, an efficacy study was carried out in HIV patients. […] “Antiviral Activity, Safety, and Tolerability of a Novel, Oral Small-Molecule HIV-1 Attachment Inhibitor, IVa, in HIV-1-Infected Subjects” G. Hanna, J. Lalezari, J. Hellinger, D. Wohl, T. Masterson, W. Fiske, J. Kadow, P-F. Lin, M. Giordano, R. Colonno, D. Grasela. Abstract J-32, Feb. 11, 2004, 11th Conference on Retroviruses and Opportunistic Infections (CROI), San Francisco, Calif. The study design included HIV+ adults who were either antiretroviral therapy naïve or off antiretroviral therapy for ≧16 weeks. Their CD4 counts were required to be ≧250 cells/mm3 and plasma HIV-1 RNA needed to be in the range 5,000-500,000 c/mL. There were 15 subjects in each dose arm and the ratio of patients receiving drug:placebo was 4:1.
The placebo-controlled, sequential study of IVa utilized an initial dose arm of 800 mg PO every 12 h followed by a second dosing arm of 1800 mg PO administered every 12 h. It is important to note that drug was administered in a capsule and in combination with a high fat meal to increase exposure and plasma levels. Study drug was administered for 7 days and the morning of Day 8. Subjects were followed for 14 days.

For data set [7] the following is noted: rat.
Procedure: (§1) The stability of Iab was studied in fresh blood and serum from rat, dog, monkey and human (n=2). The blood was collected in vacutainers containing K2EDTA (Becton Dickinson, Franklin Lakes, N.J.). The serum was collected in vacutainers containing no anticoagulant. Iab was incubated at a starting concentration of approximately 10 μM for 60-90 min at 37° C. Serial samples were taken at the pre-determined times. Aliquots of blood samples (200 μL) were first mixed with 100 μL of water followed by 400 μL of acetonitrile. The serum samples (50 μL) were added into microtainers containing K2EDTA (Becton Dickinson, Franklin Lakes, N.J.) followed by the addition of 100 μL of acetonitrile. The supernatant was analyzed for both Iab and IVa by LC/MS/MS. The stability of Ibb was studied in fresh blood and serum from rat, dog, monkey and human (n=2). The blood was collected in vacutainers containing K2EDTA (Becton Dickinson, Franklin Lakes, N.J.). The serum was collected in vacutainers containing no anticoagulant. Ibb was incubated at a starting concentration of approximately 15 μM for 90 min at 37° C. Serial samples were taken at the pre-determined times. Aliquots of blood samples (200 μL) were first mixed with 100 μL of water followed by 400 μL of acetonitrile. The serum samples (50 μL) were added into microtainers containing K2EDTA (Becton Dickinson, Franklin Lakes, N.J.) followed by the addition of 100 μL of acetonitrile. […] The stability of Icb was studied in fresh blood and serum from rat, dog, monkey and human (n=2). The blood was collected in vacutainers containing K2EDTA (Becton Dickinson, Franklin Lakes, N.J.). The serum was collected in vacutainers containing no anticoagulant. Icb was incubated at a starting concentration of approximately 10 μM for 90 min at 37° C. Serial samples were taken at the pre-determined times. Aliquots of blood samples (200 μL) were first mixed with 100 μL of water followed by 400 μL of acetonitrile. The serum samples (50 μL) were added into microtainers containing K2EDTA (Becton Dickinson, Franklin Lakes, N.J.) followed by the addition of 100 μL of acetonitrile.
The conditions of data set [8]: dog.
Procedure: as §1
The conditions of data set [9]: human.
Procedure: as §1
The conditions of data set [10]: pH 7.5.
Procedure: The stability of Iab was also evaluated, as described above, in Tris-HCl buffer (0.1 M, pH 7.5). The stability of Ibb was also evaluated, as described above, in Tris-HCl buffer (0.1 M, pH 7.5). The stability of Icb was also evaluated, as described above, in Tris-HCl buffer (0.1 M, pH 7.5).
For data set [11] the following is noted: rat, 10 μM.
Procedure: as §1
The conditions of data set [12]: monkey, 10 μM.
Procedure: as §1
Data set [13] is described as follows: 2-week rat toxicity study (5, 50 or 500 mg/kg BID). It is filed as in vivo. To be noted: 2 weeks, in-life phase completed. On the procedure:
A 2-week rat toxicity study using dosages of 5, 50, or 500 mg/kg BID to support the IND is ongoing (3).

Where [14] appears, read: 1800 mg capsule, high fat meal vs fasted.
[15] abbreviates: fed (high fat meal), dose ratio 1:2.3 (800 mg vs. 1800 mg).
[16] abbreviates: 800 mg PO every 12 h with high fat meal.

Usually pKa stands for the negative logarithm of the acid dissociation constant. On to `O=C(C(=O)N1CCN(C(=O)c2ccccc2)CC1)c1cn(COP(=O)(O)O)c2c(-n3ccnn3)ncc(F)c12` [Ibb, [3-[(4-benzoylpiperazin-1-yl)(oxo)acetyl]-4-fluoro-7-(1H-1,2,3-triazol-1-yl)-1H-pyrrolo[2,3-c]pyridin-1-yl]methyl dihydrogen phosphate, L-lysine salt (1:1)], for which the pKa in data set [1] came out at 6.1. In addition, the “solution and solid stabilities” value in [2] is “acceptable solution and solid stabilities”. The “concentration of aqueous solutions prepared for in vivo toxicology studies” value in data set [3] is above 75 mg/mL.

As usually defined, the bioavailability is dose-corrected exposure relative to a reference, in per cent. The Cmax is the maximum level reached in the sampled fluid or tissue. By Tmax is commonly meant the time from dosing to the highest level. `COc1ncc(OC)c2c(C(=O)C(=O)N3CCN(C(=O)c4ccccc4)CC3)c[nH]c12` [IVa, N-(benzoyl)-N′-[(4,7-dimethoxy-6-azaindol-3-yl)-oxoacetyl]piperazine]: in data set [4] (200 mg), the “AUC of the solution relative to the capsule” value was around 3 fold and the “Cmax of the solution relative to the capsule” value is given as “approximately 8 fold”. The “relative bioavailability (fed vs. fasted)” value in data set [4] (800 mg) is given as 293%. The “AUCtotal” value in data set [4] (800 mg, Fasting) is 22 ± 12 µM·h. Also, the “AUCtotal” value in data set [4] (800 mg, Fed) was 53 ± 10 µM·h. For the same compound, the “relative bioavailability (fed vs. fasted)” value in data set [4] (1800 mg) turned out to be 509%. Besides, in data set [4] (setting [14]), the “AUC Fed/Fasting Ratio” value was found to be 4.3 and the “Cmax Fed/Fasting Ratio” value is given as 4.5. The “AUCtotal” value in data set [4] (1800 mg, Fasting) was determined as 19 ± 5.8 µM·h. Also, the “AUCtotal” value in data set [4] (1800 mg, Fed) was 82 ± 16 µM·h. For the same compound, in data set [4] (setting [15]), the “ratio of AUC” value worked out at 1.5 and the “ratio of Cmax” value amounted to 1.6. For the same compound, in data set [4] (human, plasma, oral, 200 mg, read-out: relative bioavailability of the capsule to the solution formulation), the bioavailability was 32%. The compound also gave a Cmax in data set [4] (human, plasma, oral, 800 mg, Fasting) of 3.7 ± 1.1 µM. In [4] (human, plasma, oral, 800 mg, Fed), this compound yielded a Cmax of 9.8 ± 1.3 µM. The compound also came in with a Cmax in data set [4] (human, plasma, oral, 1800 mg, Fasting) of 3.3 ± 0.84 µM. This compound also had a Cmax in data set [4] (human, plasma, oral, 1800 mg, Fed) of 15 ± 5 µM. The concentration at 8 h in data set [4] (human, plasma, oral, 800 mg capsule with food, 8 hours post dose) stood at 1 µg/mL. The compound also showed a concentration at 12 h in data set [4] (human, plasma, oral, 800 mg capsule with food, 12 hours post dose) of 0.218 µg/mL. Also, the time of peak concentration (Tmax) in data set [4] (human, plasma, oral, fed, read-out: median Tmax) worked out at 4 h. In data set [5], this compound came in with an accumulation of at most 1.5 fold. Besides, in data set [6] (setting [16]), the “Day 8 Change in CD4, Mean (SD)” value was 106 (151) cells/mm3; the “Day 8 Change in CD4, Range” value is recorded as −214 to +272 cells/mm3; the “Maximal Change in HIV RNA Over 14 days >0.5 log10 c/mL, n (%)” value is listed as 8 (67%) n (%); the “Maximal Change in HIV RNA Over 14 days >1.0 log10 c/mL, n (%)” value is on record as 7 (58%) n (%). For the same compound, in data set [6] (setting [16]), the “Maximal Change in HIV RNA Over 14 days >1.5 log10 c/mL, n (%)” value is 3 (25%) n (%); the “Maximal change in HIV RNA Over 14 days, Mean (SD)” value is reported as −1.00 (0.50) log10 c/mL; the “Maximal change in HIV RNA Over 14 days, Range” value is −0.32 to −1.60 log10 c/mL. In addition, the “Day 8 Change in HIV RNA, Mean (SD)” value in data set [6] (800 mg PO every 12 h with high fat meal, HIV+ adults) is listed as −0.72 (0.51) log10 c/mL. In addition, the “patients with >1.0 log drop in viral load” value in data set [6] (800 mg dosing level with high fat meal) was found to be 58%. The “mean response (drop in viral load)” value in data set [6] (1800 mg every 12 h with high fat meal) is listed as −0.96 log 10.

Regarding `COc1cnc(-n2cnc(C)n2)c2c1c(C(=O)C(=O)N1CCN(C(=O)c3ccccc3)CC1)cn2COP(=O)(O)O` [Icb, [3-[(4-benzoylpiperazin-1-yl)(oxo)acetyl]-4-methoxy-7-(3-methyl-1H-1,2,4-triazol-1-yl)-1H-pyrrolo[2,3-c]pyridin-1-yl]methyl dihydrogen phosphate, 2-amino-2-(hydroxymethyl)propane-1,3-diol salt (1:1)], the “conversion of prodrug to parent in blood containing EDTA” value in [7], in data set [8] and in data set [9] was below 2% each time. For the same compound, the “Icb” value amounted to 12 µM in data set [7] (0 min); 11 µM in data set [7] (15 min); 12 µM in data set [7] (90 min); 10 µM in [8] (0 min); 10 µM in data set [8] (15 min); 11 µM in data set [8] (90 min). Moreover, the “Icb” value in [9] (0 min, 10 μM) stood at 11 µM; in [9] (15 min), 11 µM; in data set [9] (30 min), 13 µM; in data set [9] (45 min, 10 μM), 12 µM; in [9] (60 min, 10 μM) it was 11 µM; in data set [9] (90 min, 10 μM), 11 µM. In addition, the “Icb” value in data set [10] (0 min, 10 μM) came out at 11 µM; in data set [10] (15 min), 11 µM; in data set [10] (30 min), 11 µM; in [10] (45 min, 10 μM), 11 µM; in [10] (60 min, 10 μM), 10 µM; in [10] (90 min, 10 μM) it was 11 µM. Moreover, the “Icb” value was 7.6 µM in data set [11] (0 min); 6.5 µM in data set [11] (15 min); 2.1 µM in data set [11] (90 min); 9.3 µM in data set [12] (0 min); 7.1 µM in data set [12] (15 min); 1.1 µM in [12] (90 min). Also, in data set [10] (90 min), the “stability / conversion of prodrug to parent in Tris-HCl buffer” value is given as “less than 2%”.

With `COc1cnc(OC)c2c1c(C(=O)C(=O)N1CCN(C(=O)c3ccccc3)CC1)cn2COP(=O)(O)O` [Iab, {3-[(4-benzoylpiperazin-1-yl)(oxo)acetyl]-4,7-dimethoxy-1H-pyrrolo[2,3-c]pyridin-1-yl}methyl dihydrogen phosphate, L-lysine salt (1:1)], the in-life observations entry in data set [13] is reported as “no noteworthy in-life observations”. The “solution and solid stabilities” value in data set [2] was “acceptable solution and solid stabilities”. The “concentration of aqueous solutions prepared for in vivo toxicology studies” value in data set [3] is above 100 mg/mL.
